Measured values: US20250269041A1, “Mutual Prodrugs of Cromoglicic Acid” (Samdolite Pharmaceuticals, Inc., priority 2022, published 2025)
Like-named read-outs stand apart in the source and are kept apart here.

Columns and labels:
[1] = Experimental: Shed snakeskin, which is a model membrane to human skin used for preliminary permeability studies due to its similarity in composition to the human stratum corneum, was used as a skin model. The solution in the receiver compartment was maintained at 37° C. and stirred at 500 rpm with a magnetic stirrer. Before each experiment, the shed snakeskin was hydrated in 7.4 pH Dulbecco's Phosphate Buffered Saline (DPBS) containing 0.1% sodium azide solution for 24 hours at room temperature.
To emulate the esterase activity of human skin, a “sandwich” of shed snakeskin from a black rat snake (Pantherophis obsoletus) and a dialysis membrane with a molecular weight cut-off of 3.5 kDa (Cole-Palmer, Spectra Por S/P 3 EW-02900-04) was designed. Recombinant Human Carboxylesterase 2/CES2 (R&D Systems, #5657-CE) at a concentration 50 μg/mL was added between the snakeskin and the dialysis membrane (FIG. 1). A diffusion area of 0.64 cm^2 and a volume of 2 mL in the donor and receiver compartments were used. The temperature in Franz cell was controlled via thermocouple probe IT-23 (World Precision Instruments, Sarasota, FL, USA) placed in receiver compartment below the membrane “sandwich” through the sampling arm. All tested compounds were solubilized in 50% polyethylene glycol 400 (PEG 400)/DPBS at 25 mg/mL. PEG 400 was used to increase the water solubility of diethyl cromoglycate, cetirizine ethyl ester and cetirizine cromoglycate.
The system was allowed to equilibrate for one hour before each experiment. […] The receiver compartment was filled with 2 mL of 50% w/w polyethylene glycol 400 in DPBS to maintain a sink condition in the receiver solution. A sample was manually taken at 1-hour intervals from the receptor compartment and replaced with fresh DPBS at each time point. The concentration of drugs and their cumulative amount was plotted against time. Each experiment with each compound was performed in triplicate. The amount of the drug in the sample was estimated spectrophotometrically (NanoDrop™ UV-Visible spectrophotometer, Thermo Fisher Scientific Inc.). Light absorption was plotted as a function of concentration and fitted with a linear regression equation.

[2] = normal pH of 7.4; cited from earlier work
[3] = black rat snake (Pantherophis obsoletus), 0 h, 25 mg/mL
[4] = black rat snake (Pantherophis obsoletus), 25 mg/mL
[5] = black rat snake (Pantherophis obsoletus), 1 h, 25 mg/mL
[6] = black rat snake (Pantherophis obsoletus), 2 h, 25 mg/mL
[7] = black rat snake (Pantherophis obsoletus), 3 h, 25 mg/mL
[8] = black rat snake (Pantherophis obsoletus), 4 h, 25 mg/mL
[9] = black rat snake (Pantherophis obsoletus), 5 h, 25 mg/mL
[10] = black rat snake (Pantherophis obsoletus), 6 h, 25 mg/mL
[11] = black rat snake (Pantherophis obsoletus), 7 h, 25 mg/mL
[12] = black rat snake (Pantherophis obsoletus), 8 h, 25 mg/mL
[13] = black rat snake (Pantherophis obsoletus), 9 h, 25 mg/mL
[14] = black rat snake (Pantherophis obsoletus), 10 h, 25 mg/mL
[15] = black rat snake (Pantherophis obsoletus), 11 h, 25 mg/mL
[16] = black rat snake (Pantherophis obsoletus), 12 h, 25 mg/mL

Row | Cumulative concentration per unit area [1, 3] | permeation across the shed snakeskin, times lower than the permeation of the lipophilic prodrug [1, 4] | Cumulative concentration per unit area [1, 5] | Cumulative concentration per unit area [1, 6] | Cumulative concentration per unit area [1, 7] | Cumulative concentration per unit area [1, 8] | Cumulative concentration per unit area [1, 9] | Cumulative concentration per unit area [1, 10] | Cumulative concentration per unit area [1, 11] | Cumulative concentration per unit area [1, 12] | Cumulative concentration per unit area [1, 13] | Cumulative concentration per unit area [1, 14] | Cumulative concentration per unit area [1, 15] | Cumulative concentration per unit area [1, 16] | transport compared with the permeation of lipophilic prodrugs diethyl cromoglycate and cetirizine ethyl ester [1] | mean lag times across shed snakeskin [1, 4] | mean lag times across shed snakeskin [1] | Structure (SMILES) | logP [2]
1 | 0 μg/cm^2 | 3.5-5 times | 5 μg/cm^2 | 15 μg/cm^2 | 25 μg/cm^2 | 30 μg/cm^2 | 45 μg/cm^2 | 50 μg/cm^2 | 73 μg/cm^2 | 80 μg/cm^2 | 93 μg/cm^2 | 98 μg/cm^2 | 112 μg/cm^2 | 119 μg/cm^2 |  |  |  | O=C(O)c1cc(=O)c2c(OCC(O)COc3cccc4oc(C(=O)O)cc(=O)c34)cccc2o1 [Cromoglicate Sodium, Cromoglicate sodium, reference compound] | −4.8
2 | 0 μg/cm^2 |  | 2 μg/cm^2 | 12 μg/cm^2 | 28 μg/cm^2 | 53 μg/cm^2 | 89 μg/cm^2 | 112 μg/cm^2 | 142 μg/cm^2 | 176 μg/cm^2 | 215 μg/cm^2 | 256 μg/cm^2 | 295 μg/cm^2 | 350 μg/cm^2 | lower | 0.55 to 1.15 h |  | O=C(COCCN1CCN(C(c2ccccc2)c2ccc(Cl)cc2)CC1)OC(COc1cccc2oc(C(=O)O)cc(=O)c12)COc1cccc2oc(C(=O)O)cc(=O)c12 (stereo not drawn) [Example 3] | 
3 |  |  |  |  |  |  |  |  |  |  |  |  |  |  |  |  | 0.15 to 0.25 h | CCOC(=O)COCCN1CCN(C(c2ccccc2)c2ccc(Cl)cc2)CC1 (stereo not drawn) [Cetirizine Ethyl Ester, reference compound] | 
4 | 0 μg/cm^2 |  | 23 μg/cm^2 | 55 μg/cm^2 | 95 μg/cm^2 | 145 μg/cm^2 | 195 μg/cm^2 | 235 μg/cm^2 | 256 μg/cm^2 | 320 μg/cm^2 | 390 μg/cm^2 | 435 μg/cm^2 | 470 μg/cm^2 | 495 μg/cm^2 |  | 0.15 to 0.25 h |  | CCOC(=O)c1cc(=O)c2c(OCC(O)COc3cccc4oc(C(=O)OCC)cc(=O)c34)cccc2o1 [Example 50, Diethyl Cromoglicate] | 
